Reference: paper PMC7845594, “Novel Immune Modulators Enhance Caenorhabditis elegans Resistance to Multiple Pathogens” (mSphere, 2021)

Experiments:
[1] = test system: P. aeruginosa strain PA14; assay: MIC assay (bacterial growth, no worms); type: cell-based, Pseudomonas aeruginosa
Procedure: For the first round of characterization, 69 novel small molecules previously selected on the basis of their ability to improve C. elegans survival during exposure to P. aeruginosa in liquid ([14]) were tested for the ability to interfere with bacterial growth. MICs were determined for each compound by growing P. aeruginosa strain PA14 in static culture in 384-well plates with serial 2-fold dilutions of compounds. No worms were used in these assays. Next, effective rescue concentrations (EC; defined as the minimum concentration that results in statistically significant survival, compared to dimethyl sulfoxide [DMSO]) ([15], [18]) were determined for each compound using the standard P. aeruginosa liquid killing assay. Sterile glp-4(bn2) worms were used in all liquid-based assays to limit artifacts (i.e., unlaid eggs will hatch and cause matricide).
Plates were allowed to grow for 24 h at 37°C without shaking. Growth was scored visually on the basis of turbidity. At least three biological replicates were performed.

[2] = test system: C. elegans transcriptome; assay: Transcriptome profiling (Affymetrix microarrays), differentially expressed genes; type: in vivo, Caenorhabditis elegans; details: for Fold Change: downregulated genes
Procedure: To gain additional insight into the effect of LK molecules on C. elegans, young-adult, wild-type worms were treated with each drug at 100 µM for 8 h in the absence of pathogen. RNA was collected, and transcriptome profiling was performed.
Data were determined using Affymetrix microarrays, as described in Materials and Methods. Download Table S3, XLSX file, 0.07 MB.
Transcriptome profiling was performed on ∼6,000 wild-type, young adult worms incubated with either LK molecules or DMSO for 8 h. RNA isolation was performed using TRIzol extraction, followed by cleanup using RNeasy columns according to the manufacturer’s protocol. Each condition was analyzed in triplicate. Microarray data have been deposited in the GEO database, accession number GSE137516. […] Clustering and generation of the heat map was performed using Cluster 3.0 ([98]) and Treeview ([99]), respectively. Fold change of genes were normalized to average fold change of that gene over all clustered conditions. Genes and conditions were clustered using Euclidean distance and average linkages. […] Microarray data for non-LK molecules were collected from GEO omnibus. WormEXP was used as a secondary method for confirming statistical significance of potential pathways stimulated by each of the LK molecules ([100]). Gene ontologies were generated using DAVID ([101], [102]).

[3] = Downregulated genes, Affy_ID 171867_x_at

CN(C)/N=N/c1ccc(-c2cn(Cc3ccccc3)cn2)cc1 [LK38]
MIC ([1]; Pseudomonas aeruginosa, P. aeruginosa PA14, LB media, static culture, no worms, read-out: MIC): > 655 µM
MIC / EC ([1]; ratio of MIC to EC, P. aeruginosa PA14): > 97.8
Fold Change ([2]; Affy_ID 171867_x_at, listed under genes C09B9.6, F36H12.7, K07F5.1, R05F9.13, R13H9.2, R13H9.4, T13F2.10, T13F2.11, Y59E9AR.1, Y59E9AR.7, ZK354.1): 0.2521
Fold Change ([2]; Affy_ID 176276_s_at, listed under gene Y69A2AR.25 (LK34) or Y69A2AR.12 (LK38)): 0.3902
Fold Change, gene ZK525.1 ([2]; Downregulated genes, Affy_ID 171849_x_at): 0.4368
Fold Change, gene ZK354.10 [2, 3]: 0.2521
Fold Change, gene ZK354.11 [2, 3]: 0.2521
Fold Change, gene ZK354.4 [2, 3]: 0.2521
Fold Change, gene ZK354.5 [2, 3]: 0.2521
Fold Change, gene ZK525.1 ([2]; Downregulated genes, Affy_ID 172214_x_at): 0.3013
Fold Change, gene ZK484.8 ([2]; Downregulated genes, Affy_ID 172381_x_at): 0.4248
Fold Change, gene ZK546.3 ([2]; Downregulated genes, Affy_ID 172798_x_at): 0.1961
Fold Change, gene ZK546.6 ([2]; Downregulated genes, Affy_ID 172900_x_at): 0.1945
Fold Change, gene ZK354.4 ([2]; Downregulated genes, Affy_ID 172922_x_at): 0.2136
Fold Change, gene ZK354.11 ([2]; Downregulated genes, Affy_ID 172925_x_at): 0.2447
Fold Change, gene ZK354.5 ([2]; Downregulated genes, Affy_ID 172928_x_at): 0.2421
Fold Change, gene ZK550.2 ([2]; Downregulated genes, Affy_ID 179513_at): 0.2459
Fold Change, gene ZK484.5 ([2]; Downregulated genes, Affy_ID 182193_at): 0.3776
Fold Change, gene ZK666.7 ([2]; Downregulated genes, Affy_ID 194066_s_at): 0.2101
Fold Change ([2]; Gene C05C12.3, Affy_ID 183355_s_at): 0.3153
Fold Change ([2]; Gene C08E3.1, Affy_ID 172309_x_at): 0.1357
Fold Change ([2]; Gene C08E3.13, Affy_ID 172565_x_at): 0.1172
Fold Change ([2]; Gene C08F11.13, Affy_ID 175229_at): 0.2733
Fold Change ([2]; Gene C08F11.13, Affy_ID 185001_at): 0.09464
Fold Change ([2]; Gene C09B9.6, Affy_ID 172903_x_at): 0.2435
Fold Change ([2]; Gene C14C6.2, Affy_ID 183566_at): 0.3131
Fold Change ([2]; Gene R01E6.3, Affy_ID 189628_at): 0.3184
Fold Change ([2]; Gene R03E9.1, Affy_ID 193723_s_at): 0.2835
Fold Change ([2]; Gene R04B5.9, Affy_ID 191440_at): 0.3161
Fold Change ([2]; Gene R05F9.13, Affy_ID 172714_x_at): 0.2707
Fold Change ([2]; Gene R05F9.3, Affy_ID 172725_x_at): 0.4569
Fold Change ([2]; Gene R05F9.8, Affy_ID 172724_x_at): 0.2625
Fold Change ([2]; Gene R12C12.1, Affy_ID 190616_at): 0.3782
Fold Change ([2]; Gene R13H9.2, Affy_ID 172771_x_at): 0.2091
Fold Change ([2]; Gene R13H9.4, Affy_ID 172770_x_at): 0.2077
Fold Change ([2]; Gene T01C3.4, Affy_ID 188106_at): 0.02377
Fold Change ([2]; Gene T02B11.3, Affy_ID 174051_s_at): 0.3852
Fold Change ([2]; Gene T07C4.4, Affy_ID 178149_s_at): 0.3385
Fold Change ([2]; Gene T07G12.5, Affy_ID 188496_s_at): 0.1128
Fold Change ([2]; Gene T08B1.6, Affy_ID 192296_at): 0.264
Fold Change ([2]; Gene T08B2.12, Affy_ID 184685_s_at): 0.1122
Fold Change ([2]; Gene T09F5.9, Affy_ID 188947_at): 0.335
Fold Change ([2]; Gene T13F2.10, Affy_ID 172906_x_at): 0.282
Fold Change ([2]; Gene T13F2.11, Affy_ID 172905_x_at): 0.2555
Fold Change ([2]; Gene T14B4.4, Affy_ID 190598_at): 0.3119
Fold Change ([2]; Gene T15B7.9, Affy_ID 182858_at): 0.3485
Fold Change ([2]; Gene T20D4.11, Affy_ID 184438_at): 0.08285
Fold Change ([2]; Gene T22H2.6, Affy_ID 180962_s_at): 0.4528
Fold Change ([2]; Gene T23B7.1, Affy_ID 172486_x_at): 0.4388
Fold Change ([2]; Gene T23B12.8, Affy_ID 184855_at): 0.1808
Fold Change ([2]; Gene T23F4.1, Affy_ID 180223_s_at): 0.03953
Fold Change ([2]; Gene T23F4.3, Affy_ID 179815_at): 0.03894
Fold Change ([2]; Gene T27A10.7, Affy_ID 186153_s_at): 0.1891
Fold Change ([2]; Gene T27E4.7, Affy_ID 173756_at): 0.3486
Fold Change ([2]; Gene T27E4.7, Affy_ID 173757_s_at): 0.3375
Fold Change ([2]; Gene T28H11.6, Affy_ID 172704_x_at): 0.3336
Fold Change ([2]; Gene W04B5.2, Affy_ID 180561_at): 0.445
Fold Change ([2]; Gene W07B8.5, Affy_ID 191887_s_at): 0.336
